What was measured:
Format in all cases: in vivo
Echinochloa crus-galli [1] = test: Post-emergence herbicidal action, ECHCG; design: key: % herbicidal action vs untreated; 100 = plants died, 0 = like control; conditions: for herbicidal action ECHCG: Dosage 80 g/ha; for Herbicidal action against ECHCG: post-emergence, dosage 80 g/ha
Method: (§1) [table] 2. Post-Emergence Herbicidal Action Against Harmful Plants Seeds of monocotyledonous and dicotyledonous weed and crop plants are laid out in sandy loam soil in wood-fiber pots, covered with soil and cultivated in a greenhouse under good growth conditions. 2 to 3 weeks after sowing, the test plants are treated at the one-leaf stage. The compounds of the invention, formulated in the form of wettable powders (WP) or as emulsion concentrates (EC), are then sprayed onto the green parts of the plants in the form of an aqueous suspension or emulsion at a water application rate equating to 600 to 800 l/ha, with addition of 0.2% wetting agent. After the test plants have been left to stand in the greenhouse under optimal growth conditions for about 3 weeks, the action of the preparations is assessed visually in comparison to untreated controls (herbicidal action in percent (%): 100% activity=the plants have died, 0% activity=like control plants). […] The tables below illustrate, in an exemplary manner, the post-emergence herbicidal action of the compounds according to the invention, the herbicidal activity being stated in percent. In the experiments that follow, herbicidal action of numerous inventive compounds and the known compounds that are structurally closest from D1 (WO 2012/028579 A1) and D2 (WO 2018/202535 A1) were compared under the above-specified conditions by the pre-emergence and post-emergence method. The example numbers given in the tables relate to the compounds disclosed in the respective documents. In addition to the compounds disclosed in D1 and D2, the following compounds V-1 to V-14 that are encompassed by D1 or D2 but are not compounds specified therein were used in the comparative experiments: • V-1: 2-(methylsulfanyl)-3-(methylsulfinyl)-N-(1-methyl-1H-tetrazol-5-yl)-4-(trifluoromethyl)benzamide • V-2: 2-(methylsulfanyl)-3-(methylsulfonyl)-N-(1-methyl-1H-tetrazol-5-yl)-4-(trifluoromethyl)benzamide • V-3: 2,3-bis(ethylsulfanyl)-N-(1-methyl-1H-tetrazol-5-yl)-4-(trifluoromethyl)benzamide • V-4: 2-chloro-3-(ethylsulfanyl)-N-(1-methyl-1H-tetrazol-5-yl)-4-(trifluoromethyl)benzamide • V-5: 2-chloro-4-iodo-3-(methylsulfanyl)-N-(1-methyl-1H-tetrazol-5-yl)benzamide • V-6: 2-chloro-4-iodo-3-(methylsulfinyl)-N-(1-methyl-1H-tetrazol-5-yl)benzamide • V-7: 2-chloro-4-iodo-3-(methylsulfonyl)-N-(1-methyl-1H-tetrazol-5-yl)benzamide • V-8: 2-bromo-3-(methylsulfanyl)-N-(1-methyl-1H-tetrazol-5-yl)-4-(trifluoromethyl)benzamide • V-9: 2-bromo-3-(methylsulfinyl)-N-(1-methyl-1H-tetrazol-5-yl)-4-(trifluoromethyl)benzamide • V-10: 2-bromo-3-(methylsulfonyl)-N-(1-methyl-1H-tetrazol-5-yl)-4-(trifluoromethyl)benzamide • V-11: 2-bromo-3-(ethylsulfanyl)-N-(1-methyl-1H-tetrazol-5-yl)-4-(trifluoromethyl)benzamide • V-12: 2-bromo-3-(ethylsulfinyl)-N-(1-methyl-1H-tetrazol-5-yl)-4-(trifluoromethyl)benzamide • V-13: 2-bromo-3-(ethylsulfonyl)-N-(1-methyl-1-1H-tetrazol-5-yl)-4-(trifluoromethyl)benzamide • V-14: 2-cyclopropyl-3-(ethylsulfanyl)-N-(1-methyl-1H-tetrazol-5-yl)-4-(trifluoromethyl)benzamide Herbicidal Pre-Emergence Action: […]

Matricaria inodora [2] = test: Pre-emergence herbicidal action, MATIN; conditions: dosage 320 g/ha
Source text: (§2) 1. Pre-Emergence Herbicidal Action Against Harmful Plants Seeds of monocotyledonous and dicotyledonous weed plants and crop plants are laid out in sandy loam soil in wood-fiber pots and covered with soil. The compounds of the invention, formulated in the form of wettable powders (WP) or as emulsion concentrates (EC), are then applied to the surface of the covering soil in the form of an aqueous suspension or emulsion at a water application rate equating to 600 to 800 l/ha, with addition of 0.2% wetting agent. After the treatment, the pots are placed in a greenhouse and kept under good growth conditions for the trial plants. The damage to the test plants is scored visually after a test period of 3 weeks by comparison with untreated controls (herbicidal activity in percent (%): 100% activity=the plants have died, 0% activity=like control plants). […] The tables below illustrate, in an exemplary manner, the […] herbicidal action of the compounds according to the invention, the herbicidal activity being stated in percent. [table] In the experiments that follow, herbicidal action of numerous inventive compounds and the known compounds that are structurally closest from D1 (WO 2012/028579 A1) and D2 (WO 2018/202535 A1) were compared under the above-specified conditions by the pre-emergence and post-emergence method. The example numbers given in the tables relate to the compounds disclosed in the respective documents. In addition to the compounds disclosed in D1 and D2, the following compounds V-1 to V-14 that are encompassed by D1 or D2 but are not compounds specified therein were used in the comparative experiments: • V-1: 2-(methylsulfanyl)-3-(methylsulfinyl)-N-(1-methyl-1H-tetrazol-5-yl)-4-(trifluoromethyl)benzamide • V-2: 2-(methylsulfanyl)-3-(methylsulfonyl)-N-(1-methyl-1H-tetrazol-5-yl)-4-(trifluoromethyl)benzamide • V-3: 2,3-bis(ethylsulfanyl)-N-(1-methyl-1H-tetrazol-5-yl)-4-(trifluoromethyl)benzamide • V-4: 2-chloro-3-(ethylsulfanyl)-N-(1-methyl-1H-tetrazol-5-yl)-4-(trifluoromethyl)benzamide • V-5: 2-chloro-4-iodo-3-(methylsulfanyl)-N-(1-methyl-1H-tetrazol-5-yl)benzamide • V-6: 2-chloro-4-iodo-3-(methylsulfinyl)-N-(1-methyl-1H-tetrazol-5-yl)benzamide • V-7: 2-chloro-4-iodo-3-(methylsulfonyl)-N-(1-methyl-1H-tetrazol-5-yl)benzamide • V-8: 2-bromo-3-(methylsulfanyl)-N-(1-methyl-1H-tetrazol-5-yl)-4-(trifluoromethyl)benzamide • V-9: 2-bromo-3-(methylsulfinyl)-N-(1-methyl-1H-tetrazol-5-yl)-4-(trifluoromethyl)benzamide • V-10: 2-bromo-3-(methylsulfonyl)-N-(1-methyl-1H-tetrazol-5-yl)-4-(trifluoromethyl)benzamide • V-11: 2-bromo-3-(ethylsulfanyl)-N-(1-methyl-1H-tetrazol-5-yl)-4-(trifluoromethyl)benzamide • V-12: 2-bromo-3-(ethylsulfinyl)-N-(1-methyl-1H-tetrazol-5-yl)-4-(trifluoromethyl)benzamide • V-13: 2-bromo-3-(ethylsulfonyl)-N-(1-methyl-1-1H-tetrazol-5-yl)-4-(trifluoromethyl)benzamide • V-14: 2-cyclopropyl-3-(ethylsulfanyl)-N-(1-methyl-1H-tetrazol-5-yl)-4-(trifluoromethyl)benzamide Herbicidal Pre-Emergence Action: […]

Pharbitis purpurea = test: Post-emergence herbicidal action, PHBPU; conditions: for herbicidal action PHBPU: Dosage 80 g/ha; for Herbicidal action against PHBPU: post-emergence, dosage 80 g/ha
Method: as §1

Abutilon theophrasti [3] = test: Post-emergence herbicidal action, ABUTH; design: key: % herbicidal action vs untreated; 100 = plants died, 0 = like control; conditions: for herbicidal action ABUTH: Dosage 80 g/ha; for Herbicidal action against ABUTH: post-emergence, dosage 80 g/ha
Method: as §1

Viola tricolor [4] = test: Pre-emergence herbicidal action, VIOTR; design: key to Herbicidal action against VIOTR: % activity: 100 = plants have died, 0 = like control plants; conditions: for herbicidal action VIOTR: dosage 320 g/ha
Source text: as §2

Veronica persica [5] = test: Pre-emergence herbicidal action, VERPE; conditions: dosage 320 g/ha
Source text: as §2

Setaria viridis = test: Post-emergence herbicidal action, SETVI; design: key: % herbicidal action vs untreated; 100 = plants died, 0 = like control; conditions: for herbicidal action SETVI: Dosage 80 g/ha; for Herbicidal action against SETVI: post-emergence, dosage 80 g/ha
Method: as §1

Amaranthus retroflexus [6] = test: Pre-emergence herbicidal action, AMARE; design: key to Herbicidal action against AMARE: % activity: 100 = plants have died, 0 = like control plants; conditions: for herbicidal action AMARE: dosage 320 g/ha
Source text: as §2

Abutilon theophrasti [7] = test: Pre-emergence herbicidal action, ABUTH; conditions: dosage 320 g/ha
Source text: as §2

Viola tricolor [8] = test: Post-emergence herbicidal action, VIOTR; design: key: % herbicidal action vs untreated; 100 = plants died, 0 = like control; conditions: for herbicidal action VIOTR: Dosage 80 g/ha; for Herbicidal action against VIOTR: post-emergence
Method: as §1

Matricaria inodora [9] = test: Post-emergence herbicidal action, MATIN; design: key: % herbicidal action vs untreated; 100 = plants died, 0 = like control; conditions: for herbicidal action MATIN: Dosage 80 g/ha; for Herbicidal action against MATIN: post-emergence, dosage 80 g/ha
Method: as §1

Veronica persica [10] = test: Post-emergence herbicidal action, VERPE; design: key: % herbicidal action vs untreated; 100 = plants died, 0 = like control; conditions: for herbicidal action VERPE: Dosage 80 g/ha; for Herbicidal action against VERPE: post-emergence, dosage 80 g/ha
Method: as §1

Amaranthus retroflexus [11] = test: Post-emergence herbicidal action, AMARE; design: key: % herbicidal action vs untreated; 100 = plants died, 0 = like control; conditions: for herbicidal action AMARE: Dosage 80 g/ha; for Herbicidal action against AMARE: post-emergence, dosage 80 g/ha
Method: as §1

Stellaria media [12] = test: Post-emergence herbicidal action, STEME; design: key: % herbicidal action vs untreated; 100 = plants died, 0 = like control; conditions: for herbicidal action STEME: Dosage 80 g/ha; for Herbicidal action against STEME: post-emergence, dosage 80 g/ha
Method: as §1

Stellaria media [13] = test: Pre-emergence herbicidal action, STEME; conditions: dosage 320 g/ha
Source text: as §2

Echinochloa crus-galli [14] = test: Pre-emergence herbicidal action, ECHCG; conditions: dosage 320 g/ha
Source text: as §2

[15] = comparative experiment, 20 g of a.i./ha

Compound	herbicidal action MATIN (Matricaria inodora [2])	herbicidal action VIOTR (Viola tricolor [4])	herbicidal action VERPE (Veronica persica [5])	herbicidal action AMARE (Amaranthus retroflexus [6])	herbicidal action ABUTH (Abutilon theophrasti [7])	Herbicidal action against ECHCG (Echinochloa crus-galli [1])	Herbicidal action against VIOTR (Viola tricolor [8]; dosage 80 g/ha)	Herbicidal action against VERPE (Veronica persica [10])	Herbicidal action against AMARE (Amaranthus retroflexus [11])	Herbicidal action against STEME (Stellaria media [12])	Herbicidal action against PHBPU (Pharbitis purpurea)	herbicidal action ECHCG (Echinochloa crus-galli [14])	Herbicidal action against ABUTH (Abutilon theophrasti [3])	further results
CSCc1c(S(C)(=O)=O)ccc(C(=O)Nc2nnnn2C)c1C [Example 1-37]	80%	100%	90%	100%	80%	–	–	–	–	–	–	–	–	herbicidal action ECHCG (Echinochloa crus-galli [1]): 100; herbicidal action PHBPU (Pharbitis purpurea): 90; herbicidal action ABUTH (Abutilon theophrasti [3]): 90; herbicidal action SETVI (Setaria viridis): 100; herbicidal action VIOTR (Viola tricolor [8]): 100; herbicidal action MATIN (Matricaria inodora [9]): 80; herbicidal action VERPE (Veronica persica [10]): 100; herbicidal action AMARE (Amaranthus retroflexus [11]): 100; herbicidal action STEME (Stellaria media [12]): 100
Cc1c(C(=O)Nc2nnnn2C)ccc(S(C)(=O)=O)c1C[S+](C)[O-] (stereo not shown) [Example 1-38]	90%	–	100%	80%	–	90	80	90	100	100	–	–	–	herbicidal action STEME (Stellaria media [13]): 90%
Cc1c(C(=O)Nc2nnnn2C)ccc(Cl)c1C[S+](C)[O-] (stereo not shown) [Example 1-47]	–	–	–	–	–	–	–	–	–	–	–	–	–	Herbicidal action against VIOTR (Viola tricolor [4]; [15]): 30; Herbicidal action against AMARE (Amaranthus retroflexus [6]; [15]): 80
Cn1nnnc1NC(=O)c1ccc(C(F)(F)F)c(CS(C)(=O)=O)c1S(C)(=O)=O [Example 1-199]	90%	–	100%	90%	–	80	90	80	80	90	80	90%	90	–
COc1c(C(=O)Nc2nnnn2C)ccc(Cl)c1C[S+](C)[O-] (stereo not shown) [Example 1-571]	–	–	80%	90%	100%	–	–	–	–	–	–	–	–	herbicidal action ECHCG (Echinochloa crus-galli [1]): 90; herbicidal action PHBPU (Pharbitis purpurea): 90; herbicidal action ABUTH (Abutilon theophrasti [3]): 80; herbicidal action SETVI (Setaria viridis): 80; herbicidal action VIOTR (Viola tricolor [8]): 80; herbicidal action MATIN (Matricaria inodora [9]): 80; herbicidal action VERPE (Veronica persica [10]): 90; herbicidal action AMARE (Amaranthus retroflexus [11]): 80; herbicidal action STEME (Stellaria media [12]): 100
COc1c(C(=O)Nc2nnnn2C)ccc(Cl)c1CS(C)(=O)=O [Example 1-572]	–	–	80%	100%	80%	90	80	90	90	–	80	80%	80	Herbicidal action against SETVI (Setaria viridis): 80; Herbicidal action against VIOTR (Viola tricolor [8]; comparative experiment, 5 g of a.i./ha): 50
CCCn1nnnc1NC(=O)c1ccc(C(F)F)c(CS(C)(=O)=O)c1C [Example 3-109]	100%	100%	90%	100%	100%	90	100	100	100	100	90	100%	–	Herbicidal action against SETVI (Setaria viridis): 90; Herbicidal action against MATIN (Matricaria inodora [9]): 100
CCCn1nnnc1NC(=O)c1ccc(I)c(CSC)c1Cl [Example 3-362]	–	80%	–	–	–	80	–	–	80	–	–	–	80	Herbicidal action against MATIN (Matricaria inodora [9]): 90

Reference: patent US12492173B2, “Herbicidal substituted N-tetrazolyl aryl carboxamides” (Bayer Aktiengesellschaft, priority 2019, dated 2025)
